The text below walks through data of patent US5674876A, “.rho.-heteroatom-substituted phenols and uses thereof” (Research Development Foundation, priority 1995, dated 1997).

Common to all, as to format: cell-based
The test system of experiment [1] is MDA MB 435 (Metastic Human Breast Cancer Cell Line). The experiment is described as follows: Inhibition of DNA synthesis (3H-TdR uptake) / proliferation, MB-435. Particulars: for inhibition at 0.1 µg/mL / inhibition at 1 µg/mL / inhibition at 5 µg/mL / inhibition at 10 µg/mL / inhibition at 20 µg/mL: Homo sapiens, MDA-MB-435, 48 h; for inhibition at 0.1 µg/mL: MB-435, 0.1 μg/mL; for inhibition at 1 µg/mL: MB-435, 1 μg/mL; for inhibition at 5 µg/mL: MB-435, 5 μg/mL; for inhibition at 10 µg/mL: MB-435, 10 μg/mL. On the procedure:
(§1) Cells were cultured in the following media: 1) MDA MB 435 cells were cultured in Minimum Essential Media (MEM-HyClone, Logan, Utah) supplemented with 5% heat inactivated fetal bovine serum (HyClone), 2 mM glutamine (Sigma, St. Louis, Mo.), 1 mM sodium pyruvate (Sigma), 1X MEM Non-Essential Amino Acids (Sigma), 2X MEM Vitamins (Sigma), and 100 IU/mL penicillin/100 μg/mL streptomycin (HyClone); 2) MCF-7 McGuire cells were cultured in Minimum Essential Media (MEM-HyClone, Logan, Utah) supplemented with 5% heat inactivated fetal bovine serum (HyClone), 2 mM glutamine (Sigma, St. Louis, Mo.), and 100 IU/mL penicillin/100 μg/mL streptomycin (HyClone); 3) HL-60 cells were cultured in Iscoves Modified Dulbecco's Media (IMDM-HyClone, Logan, Utah) supplemented with 5% heat inactivated fetal bovine serum (HyClone), 2 mM glutamine (Sigma, St. Louis, Mo.), 1 mM sodium pyruvate (Sigma), 1X MEM Non-Essential Amino Acids (Sigma), 2X MEM Vitamins (Sigma), and 100 IU/mL penicillin/100 μg/mL streptomycin (HyClone); 2) MCF-7 McGuire cells were cultured in Minimum Essential Media (MEM-HyClone, Logan, Utah) supplemented with 5% heat inactivated fetal bovine serum (HyClone), 2 mM glutamine (Sigma, St. Louis, Mo.), and 100 IU/mL penicillin/100 μg/mL streptomycin (HyClone); 3) HL-60 cells were cultured in Iscoves Modified Dulbecco's Media (IMDM-HyClone, Logan, Utah) supplemented with 5% heat inactivated fetal bovine serum (HyClone), 2 mM glutamine (Sigma, St. Louis, Mo.), and 100 IU/mL penicillin/100 μg/mL streptomycin (HyClone).
(§2) All compounds were handled as if they were light sensitive. All compounds were initially dissolved in absolute ethanol and subsequently diluted to a final concentration of 0.5% ethanol with the appropriate medium.
(§3) For the bioassay, all cells were used at 2.5×10^5 /mL. Cells were treated with each of the compounds at concentrations of 20, 10, 5, 1, 0.1, and 0.01 μg/mL , and 200 μl of each treatment group were plated in quadruplicate in a 96 well culture plate (Corning, Corning N.Y.). Plates were done in duplicate, one plate to be used for viability testing and the other plate to examine ^3 H-TdR uptake (DNA synthesis).
(§4) Plates were cultured for 48 hours at 37° C., 5% CO2. Eight hours prior to the end of incubation, ^3 H-TdR was added to one of the duplicate plates and incubation continued for 8 hours. The cells were then harvested (trypsinization was required to harvest MDA MB 435 and MCF-7 McGuire). At the end of the incubation, the cells were removed from the wells (of the duplicate plate--no radioisotope added) and viability checked by the Trypan Blue Exclusion method. Percent viability and percent suppression of each treatment group were calculated.
(§5) With respect to the data shown in the Tables below, the data is arranged from greatest percent inhibition of DNA synthesis to lowest. […] "NT" refers to "Not Tested". The cells were cultured for 48 hours, pulsed 8 hours with tritiated thymidine, harvested and counted. MDA MB 435 is the abbreviation for the Metastic Human Breast Cancer Cell Line. MCF-7 McGuire is the abbreviation for the Estrogen Responsive Human Breast Cancer Cell Line and HL-60 is the Human Promyelocytic Leukemia Cell Line.

The test system of experiment [2] is MCF-7 McGuire (Estrogen Responsive Human Breast Cancer Cell Line). Nature of the experiment: Inhibition of DNA synthesis (3H-TdR uptake) / proliferation, MCF-7. Particulars: for inhibition at 0.1 µg/mL / inhibition at 1 µg/mL / inhibition at 5 µg/mL / inhibition at 10 µg/mL / inhibition at 20 µg/mL: Homo sapiens, MCF7, 48 h; for inhibition at 0.1 µg/mL: MCF-7, 0.1 μg/mL; for inhibition at 1 µg/mL: MCF-7, 1 μg/mL; for inhibition at 5 µg/mL: MCF-7, 5 μg/mL; for inhibition at 10 µg/mL: MCF-7, 10 μg/mL. On the procedure:
as §1, §2, §3, §4, §5

Experiment [3] concerns HL-60 (Human Promyelocytic Leukemia Cell Line). Nature of the experiment: Inhibition of DNA synthesis (3H-TdR uptake) / proliferation, HL-60. The settings on record: for inhibition at 0.1 µg/mL / inhibition at 1 µg/mL / inhibition at 5 µg/mL / inhibition at 10 µg/mL / inhibition at 20 µg/mL: Homo sapiens, 48 h; for inhibition at 0.1 µg/mL: HL-60, 0.1 μg/mL; for inhibition at 1 µg/mL: HL-60, 1 μg/mL; for inhibition at 5 µg/mL: HL-60, 5 μg/mL; for inhibition at 10 µg/mL: HL-60, 10 μg/mL. As for the experimental part: as §1, §2, §3, §4, §5

On to `CC(=O)N1CC(C)(C)c2c(C)c(O)c(C)c(C)c21` [Compound 31b], for which the inhibition at 0.1 µg/mL in experiment [1], in experiment [2] and in experiment [3] was 0% in each case. Moreover, the inhibition at 1 µg/mL in experiment [1], in experiment [2] and in experiment [3] was 0% each time. For the same molecule, the inhibition at 5 µg/mL in experiment [1] is 0%; in experiment [2], 29%; in experiment [3], 6%. Besides, the inhibition at 10 µg/mL in experiment [1] was determined as 15%; in experiment [2], 18%; in experiment [3], 15%. Also, the inhibition at 20 µg/mL in experiment [1] (MB-435, 20 μg/mL) was 33%; in experiment [2] (MCF-7, 20 μg/mL), 22%; in experiment [3] (HL-60, 20 μg/mL) it was 28%. Also, the “inhibition of proliferation (in words)” value in experiment [1] (MB-435, 10-20 μg/mL) is “significantly inhibited the proliferation”; in experiment [2] (MCF-7, 10-20 μg/mL) it was “significantly inhibited the proliferation”; in experiment [3] (HL-60, 10-20 μg/mL) it was “significantly inhibited the proliferation”.
On to `Cc1c(C)c2c(c(C)c1O)CC1(CC1)O2` [Compound 32], for which the inhibition at 0.1 µg/mL in experiment [1] was determined as 6%; in experiment [2], 0%; in experiment [3], 11%. The inhibition at 1 µg/mL in experiment [1] stood at 6%; in experiment [2], 10%; in experiment [3], 5%. Further, the inhibition at 5 µg/mL in experiment [1] stood at 15%; in experiment [2], 5%; in experiment [3] it was 12%. For the same molecule, the values for the inhibition at 10 µg/mL in experiment [1], in experiment [2] and in experiment [3] were 30%, 18% and 17%, respectively. Further, the inhibition at 20 µg/mL in experiment [1] (MB-435, 20 μg/mL) was 43%; in experiment [2] (MCF-7, 20 μg/mL), 22%; in experiment [3] (HL-60, 20 μg/mL), 26%. For the same molecule, the “inhibition of proliferation (in words)” value in experiment [1] (MB-435, 10-20 μg/mL) is reported as “significantly inhibited the proliferation”; in experiment [2] (MCF-7, 10-20 μg/mL), “significantly inhibited the proliferation”; in experiment [3] (HL-60, 10-20 μg/mL), “significantly inhibited the proliferation”.
For `Cc1cc2c(C)c(O)c(C)c(C)c2o1` [Compound 33, 5-Hydroxy-2,4,6,7-tetramethylbenzofuran], in experiment [1], 0.1 µg/mL produced 1% inhibition, the inhibition at 1 µg/mL amounted to 2%, 5 µg/mL produced 8% inhibition and at 10 µg/mL the inhibition was 16%. Besides, in experiment [1] (MB-435, 20 μg/mL), the inhibition at 20 µg/mL stood at 42% and the “inhibition of proliferation (in words)” value is listed as “significantly inhibited the proliferation”. Also, in experiment [2], the inhibition at 0.1 µg/mL was 19%, at 1 µg/mL the inhibition was 0%, testing at 5 µg/mL gave an inhibition of 0% and 10 µg/mL produced 16% inhibition. In experiment [2] (MCF-7, 20 μg/mL), the inhibition at 20 µg/mL came out at 72% and the “inhibition of proliferation (in words)” value is listed as “significantly inhibited the proliferation”. In addition, in experiment [3] (HL-60, 20 μg/mL), the “inhibition of proliferation (in words)” value is recorded as “significantly inhibited the proliferation” and the inhibition at 20 µg/mL stood at 36%. For the same molecule, in experiment [3], the inhibition at 0.1 µg/mL came to 0%, 1 µg/mL produced 0% inhibition, the inhibition at 5 µg/mL amounted to 0% and the inhibition at 10 µg/mL came to 7%.

A word on the inhibition: it is the drop in the measured response relative to a control, in per cent.
